# Values quoted from earlier work as cited in PubChem BioAssay AID1259409 (Chemical Carcinogenesis Research Information System (CCRIS), 2018).
# Test system: rodent chemically induced tumor inhibition, incidence and multiplicity
# Assay: CCRIS tumor inhibitor studies
compound,measurement,setting,value
O=C1O[C@@H]2[C@@H](O)CO[C@]2(O)[C@@]1(O)Cc1c[nH]c2ccccc12,"tumour outcome (control, treated, inhibition, significance)","Carcinogen: 7,12-DIMETHYLBENZ[A]ANTHRACENE [57-97-6], Dose [Inhibitor]: 0, 16 MG IN 0.5 ML DMSO 1X/D FOR 3 D BEGINNING 2 D PRIOR TO CARCINOGEN DOSE (STUDY DURATION: 93 D), Route [Inhibitor]: GAVAGE, Species: RAT, Strain/Sex: SPRAGUE-DAWLEY/FEMALE, Target Tissue: Type of Lesion: MAMMARY GLAND: TUMOR, Dose [Carcinogen]: 15 MG IN 0.5 ML DMSO TOGETHER WITH THE LAST DOES OF INHIBITOR (STUDY DURATION: 93 D), Promoter: NONE","63%, 60%, 5%, not significant"
same,"tumour outcome (control, treated, inhibition, significance)","Carcinogen: 7,12-DIMETHYLBENZ[A]ANTHRACENE [57-97-6], Dose [Inhibitor]: 0, 32.5 MG IN 0.5 ML DMSO 1X/D FOR 3 D BEGINNING 2 D PRIOR TO CARCINOGEN DOSE (STUDY DURATION: 93 D), Route [Inhibitor]: GAVAGE, Species: RAT, Strain/Sex: SPRAGUE-DAWLEY/FEMALE, Target Tissue: Type of Lesion: MAMMARY GLAND: TUMOR, Dose [Carcinogen]: 15 MG IN 0.5 ML DMSO TOGETHER WITH THE LAST DOES OF INHIBITOR (STUDY DURATION: 93 D), Promoter: NONE","63%, 33%, 48%, p<0.05"
same,"tumour outcome (control, treated, inhibition, significance)","Carcinogen: 7,12-DIMETHYLBENZ[A]ANTHRACENE [57-97-6], Dose [Inhibitor]: 0, 65 MG IN 0.5 ML DMSO 1X/D FOR 3 D BEGINNING 2 D PRIOR TO CARCINOGEN DOSE (STUDY DURATION: 93 D), Route [Inhibitor]: GAVAGE, Species: RAT, Strain/Sex: SPRAGUE-DAWLEY/FEMALE, Target Tissue: Type of Lesion: MAMMARY GLAND: TUMOR, Dose [Carcinogen]: 15 MG IN 0.5 ML DMSO TOGETHER WITH THE LAST DOES OF INHIBITOR (STUDY DURATION: 93 D), Promoter: NONE","63%, 39%, 38%, p<0.05"
S=C=Nc1cc2ccccc2c2ccccc12,outcome,"Carcinogen: BENZO[A]PYRENE, 50-32-8, Dose [Inhibitor]: 0, 5 UMOL IN ACETONE 4 HR PRIOR TO CARCINOGEN DOSE (STUDY DURATION: 20 WK), Route [Inhibitor]: DERMAL, Species: MOUSE, Strain/Sex: STRAIN-A/FEMALE, Target Tissue: Type of Lesion: SKIN: TUMOR, Dose [Carcinogen]: 0.1 UMOL IN ACETONE ONCE, Promoter: 12-O-TETRADECANOYLPHORBOL-13-ACETATE, 16561-29-8","85%, 95%, -12%, not significant at 15 wk; 95%, 95%, 0%, not significant at 20 wk"
S=C=NCCCCCCCCCCc1ccccc1,"tumour outcome (control, treated, inhibition, significance)","Carcinogen: 4-(METHYLNITROSAMINO)-1-(3-PYRIDYL)-1-BUTANONE, 64091-91-4, Dose [Inhibitor]: 0, 0.04 UMOL ONCE 2 HR PRIOR TO CARCINOGEN DOSE (STUDY DURATION: 16 WK), Route [Inhibitor]: GAVAGE, Species: MOUSE, Strain/Sex: STRAIN-A/FEMALE, Target Tissue: Type of Lesion: LUNG: ADENOMA, Dose [Carcinogen]: 10 UMOL IN 0.1 ML SALINE ONCE, Promoter: NONE USED","100%, 100%, 0%, not significant"
same,"tumour outcome (control, treated, inhibition, significance)","Carcinogen: 4-(METHYLNITROSAMINO)-1-(3-PYRIDYL)-1-BUTANONE, 64091-91-4, Dose [Inhibitor]: 0, 0.1 UMOL ONCE 2 HR PRIOR TO CARCINOGEN DOSE (STUDY DURATION: 16 WK), Route [Inhibitor]: GAVAGE, Species: MOUSE, Strain/Sex: STRAIN-A/FEMALE, Target Tissue: Type of Lesion: LUNG: ADENOMA, Dose [Carcinogen]: 10 UMOL IN 0.1 ML SALINE ONCE, Promoter: NONE USED","100%, 100%, 0%, not significant"
same,"tumour outcome (control, treated, inhibition, significance)","Carcinogen: 4-(METHYLNITROSAMINO)-1-(3-PYRIDYL)-1-BUTANONE, 64091-91-4, Dose [Inhibitor]: 0, 0.2 UMOL ONCE 2 HR PRIOR TO CARCINOGEN DOSE (STUDY DURATION: 16 WK), Route [Inhibitor]: GAVAGE, Species: MOUSE, Strain/Sex: STRAIN-A/FEMALE, Target Tissue: Type of Lesion: LUNG: ADENOMA, Dose [Carcinogen]: 10 UMOL IN 0.1 ML SALINE ONCE, Promoter: NONE USED","100%, 70%, 30%, p<0.05"
CC1(C)CC[C@]2(CO)CC[C@]3(C)C(=CC[C@@H]4[C@@]5(C)CC[C@H](O)[C@@](C)(CO)[C@@H]5CC[C@]43C)[C@H]2C1,"tumour outcome (control, treated, inhibition, significance)","Carcinogen: 7,12-DIMETHYLBENZ[A]ANTHRACENE, 57-97-6, Dose [Inhibitor]: 81 NMOL IN 100 µL ACETONE/DMSO (99:1) APPLIED 40 MIN PRIOR TO EACH PROMOTER DOSE (STUDY DURATION: 18 WK), Route [Inhibitor]: DERMAL, Species: MOUSE, Strain/Sex: ICR, Target Tissue: Type of Lesion: SKIN: CARCINOMA, Dose [Carcinogen]: 100 UG ONCE, Promoter: 12-O-TETRADECANOYLPHORBOL-13-ACETATE, 16561-29-8","100%, 20%, 80%, not calculated"
C[C@H](CCC(=O)O)[C@H]1CC[C@H]2[C@@H]3[C@@H](O)C[C@@H]4C[C@H](O)CC[C@]4(C)[C@H]3CC[C@]12C,"tumour outcome (control, treated, inhibition, significance)","Carcinogen: AZOXYMETHANE, 25843-45-2, Dose [Inhibitor]: 0, 0.2% IN DIET FOR 28 WK BEGINNING 2 WK PRIOR TO CARCINOGEN TREATMENT (STUDY DURATION: 30 WK), Route [Inhibitor]: ORAL, Species: RAT, Strain/Sex: F344/MALE, Target Tissue: Type of Lesion: COLON: TUMOR, Dose [Carcinogen]: 15 MG/KG BW 1/WK FOR 2 WK, Promoter: CHOLIC ACID, 81-25-4","30/47 (64%), 20/47 (43%), 33%, not significant"
same,"tumour outcome (control, treated, inhibition, significance)","Carcinogen: AZOXYMETHANE, 25843-45-2, Dose [Inhibitor]: 0, 0.2% IN DIET FOR 28 WK BEGINNING 2 WK PRIOR TO CARCINOGEN TREATMENT (STUDY DURATION: 30 WK), Route [Inhibitor]: ORAL, Species: RAT, Strain/Sex: F344/MALE, Target Tissue: Type of Lesion: COLON: TUMOR, Dose [Carcinogen]: 15 MG/KG BW 1/WK FOR 2 WK, Promoter: NONE USED","20/43 (47%), 23/48 (48%), -2%, not significant"
same,"tumour outcome (control, treated, inhibition, significance)","Carcinogen: AZOXYMETHANE, 25843-45-2, Dose [Inhibitor]: 0, 0.4% IN DIET FOR 28 WK BEGINNING 2 WK PRIOR TO CARCINOGEN TREATMENT (STUDY DURATION: 30 WK), Route [Inhibitor]: ORAL, Species: RAT, Strain/Sex: F344/MALE, Target Tissue: Type of Lesion: COLON: TUMOR, Dose [Carcinogen]: 15 MG/KG BW 1/WK FOR 2 WK, Promoter: NONE USED","20/43 (47%), 10/45 (22%), 53%, p<0.05"
